Measured values reported in patent publication US10144706B2 (BRISTOL-MYERS SQUIBB COMPANY, priority 2016, dated 2018).

Each molecule was assayed against T1, PD-1/PD-L1 interaction (PD-1-Ig / PD-L1-His) (Homo sapiens, UniProt Q9NZQ7) (assay: PD-1/PD-L1 Homogenous Time-Resolved Fluorescence (HTRF) binding assay). Conditions: IC50 range class; PD-L1-His 10 nM, PD-1-Ig 20 nM; read-out: Range or IC50.
T1 construct: hPDL1(18-239)-TVMV-His; TVMV protease site linker (C); made in house; host or cells: HEK293T
Description: The ability of the compounds of formula (I) to bind to PD-L1 was investigated using a PD-1/PD-L1 Homogenous Time-Resolved Fluorescence (HTRF) binding assay.
Homogenous Time-Resolved Fluorescence (HTRF) Binding Assay.
The interaction of PD-1 and PD-L1 can be assessed using soluble, purified preparations of the extracellular domains of the two proteins. The PD-1 and PD-L1 protein extracellular domains were expressed as fusion proteins with detection tags, for PD-1, the tag was the Fc portion of Immunoglobulin (PD-1-Ig) and for PD-L1 it was the 6 histidine motif (PD-L1-His). All binding studies were performed in an HTRF assay buffer consisting of dPBS supplemented with 0.1% […] bovine serum albumin and 0.05% (v/v) Tween-20. For the h/PD-L1-His binding assay, inhibitors were pre-incubated with PD-L1-His (10 nM final) for 15 m in 4 μl of assay buffer, followed by addition of PD-1-Ig (20 nM final) in 1 μl of assay buffer and further incubation for 15 m. HTRF detection was achieved using europium crypate-labeled anti-Ig (1 nM final) and allophycocyanin (APC) labeled anti-His (20 nM final). Antibodies were diluted in HTRF detection buffer and 5 μl was dispensed on top of the binding reaction. […] Additional binding assays were established between the human proteins PD-1-Ig/PD-L2-His (20 & 5 nM, respectively) and CD80-His/PD-L1-Ig (100 & 10 nM, respectively). […]

T1 sequence (Q9NZQ7 with tags, fused parts or gaps): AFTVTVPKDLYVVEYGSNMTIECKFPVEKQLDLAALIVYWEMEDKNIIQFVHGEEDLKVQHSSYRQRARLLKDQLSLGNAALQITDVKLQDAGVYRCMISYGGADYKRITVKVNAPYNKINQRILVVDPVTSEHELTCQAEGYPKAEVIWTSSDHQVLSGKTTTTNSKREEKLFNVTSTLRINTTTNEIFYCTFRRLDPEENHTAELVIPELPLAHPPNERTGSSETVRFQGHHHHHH

`Cc1c(COc2cc(OCc3cncc(C#N)c3)c(CN3CCC[C@H](C(=O)O)C3)cc2Cl)cccc1-c1cccc(COc2cc(OCc3cncc(C#N)c3)c(CN3CCC[C@H](C(=O)O)C3)cc2Cl)c1C` [Example 40490] and `Cc1c(COc2cc(OCc3cncc(C#N)c3)c(CO)cc2Cl)cccc1-c1cccc(COc2cc(OCc3cncc(C#N)c3)c(CN3CCOC[C@@H]3C(=O)O)cc2Cl)c1C` [Example 50100] fall in the same range of IC50: 0.04 to 20 nM for the first, 0.04 to 20 nM for the second.

First: Cc1c(OCCCN(C)Cc2cccnc2)cccc1-c1cccc(OCCCN2CC[C@@H](O)C2)c1C [Example 2049, (R)-1-(3-((2,2′-dimethyl-3′-(3-(methyl(pyridin-3-ylmethyl)amino)propoxy)-[1,1′-biphenyl]-3-yl)oxy)propyl)pyrrolidin-3-ol]
Second: Cc1c(OCCCN(C)Cc2ccccn2)cccc1-c1cccc(OCCCN2CC[C@@H](O)C2)c1C [Example 2062, (R)-1-(3-((2,2′-dimethyl-3′-(3-(methyl(pyridin-2-ylmethyl)amino)propoxy)-[1,1′-biphenyl]-3-yl)oxy)propyl)pyrrolidin-3-ol]
The IC50 of the first is higher: 90.1 to 1000 nM for the first, 20.1 to 90 nM for the second. The second is the more potent here.

Compared with `Cc1c(OCCCNCc2cccnc2)cccc1-c1cccc(OCCCN2CC[C@@H](O)C2)c1C` [Example 2050, (R)-1-(3-((2,2′-dimethyl-3′-(3-((pyridin-3-ylmethyl)amino)propoxy)-[1,1′-biphenyl]-3-yl)oxy)propyl)pyrrolidin-3-ol], `Cc1c(OCCCNCCn2cccn2)cccc1-c1cccc(OCCCN2CC[C@@H](O)C2)c1C` [Example 2008, (R)-1-(3-((3′-(3-((2-(1H-pyrazol-1-yl)ethyl)amino)propoxy)-2,2′-dimethyl-[1,1′-biphenyl]-3-yl)oxy)propyl)pyrrolidin-3-ol] is lower in IC50: 1000 to 10000 nM for the first, 90.1 to 1000 nM for the second.

`CC(=O)c1cc(Cl)c(OCc2cccc(-c3cccc(COc4cc(OCc5cncc(C#N)c5)c(CN[C@@](C)(CO)C(=O)O)cc4Cl)c3Cl)c2Cl)cc1OCc1cncc(C#N)c1` [Example 60080] and `Cc1c(COc2cc(OCc3cncc(C#N)c3)c(CNC/C=C/C(=O)O)cc2Cl)cccc1-c1cccc(COc2cc(OCc3cncc(C#N)c3)c(CNC/C=C/C(=O)O)cc2Cl)c1C` [Example 40280] fall in the same range of IC50: 0.04 to 20 nM for the first, 0.04 to 20 nM for the second.

`Cc1c(COc2cc(OCc3cncc(C#N)c3)c(CN[C@@H](Cc3cnc[nH]3)C(N)=O)cc2Cl)cccc1-c1cccc(COc2cc(OCc3cncc(C#N)c3)c(CN[C@@H](Cc3cnc[nH]3)C(N)=O)cc2Cl)c1C` [Example 40620] and `Cc1c(COc2cc(OCc3cncc(C#N)c3)c(CNC(CC(=O)O)c3ccc(F)cc3)cc2Cl)cccc1-c1cccc(COc2cc(OCc3cncc(C#N)c3)c(CNC(CC(=O)O)c3ccc(F)cc3)cc2Cl)c1C` (stereo not drawn) [Example 40390] fall in the same range of IC50: 20.1 to 90 nM for the first, 20.1 to 90 nM for the second.

`Cc1c(OCCCN2CC(N(C)C)C2)cccc1-c1cccc(OCCCN2CC(N(C)C)C2)c1C` [Example 2087, 1,1′-(((2,2′-dimethyl-[1,1′-biphenyl]-3,3′-diyl)bis(oxy))bis(propane-3,1-diyl))bis(N,N-dimethylazetidin-3-amine)] and `Cc1c(OCCCNCCN(C)C)cccc1-c1cccc(OCCCN2CC[C@@H](O)C2)c1C` [Example 2007, (R)-1-(3-((3′-(3-((2-(dimethylamino)ethyl)amino)propoxy)-2,2′-dimethyl-[1,1′-biphenyl]-3-yl)oxy)propyl)pyrrolidin-3-ol] fall in the same range of IC50: 90.1 to 1000 nM for the first, 90.1 to 1000 nM for the second.

`Cc1c(OCCCN[C@H]2CC[C@H](O)CC2)cccc1-c1cccc(OCCCN2CC[C@@H](O)C2)c1C` [Example 2017, (R)-1-(3-((3′-(3-(((1r,4r)-4-hydroxycyclohexyl)amino)propoxy)-2,2′-dimethyl-[1,1′-biphenyl]-3-yl)oxy)propyl)pyrrolidin-3-ol] and `Cc1c(OCCCNCCCO)cccc1-c1cccc(OCCCN2CC[C@@H](O)C2)c1C` [Example 2042, (R)-1-(3-((3′-(3-((3-hydroxypropyl)amino)propoxy)-2,2′-dimethyl-[1,1′-biphenyl]-3-yl)oxy)propyl)pyrrolidin-3-ol] fall in the same range of IC50: 20.1 to 90 nM for the first, 20.1 to 90 nM for the second.

Same assay, conditions: numeric IC50; PD-L1-His 10 nM, PD-1-Ig 20 nM; read-out: Range or IC50

Work on `CC(=O)c1cc(Cl)c(OCc2cccc(-c3cccc(COc4cc(OCc5cncc(C#N)c5)c(CNC(C)(CO)C(=O)O)cc4Cl)c3C)c2C)cc1OCc1cncc(C#N)c1` (stereo not drawn) [Example 60030] yielded an IC50 of 6 nM.
